# Assay results taken from publication PMC4113215 (Biochemical and biophysical research communications, 2014).
# How the values were obtained:
# [1] = target: T1, prDMGDH-var2 (precursor DMGDHvar-2) (Rattus norvegicus, UniProt Q63342); assay: X-ray crystal structure, […] Å; assay type: binding; conditions: covalent; histidyl(N3)-(8alpha)FAD at His84; THF also bound
# T1 sequence (Q63342 1-857): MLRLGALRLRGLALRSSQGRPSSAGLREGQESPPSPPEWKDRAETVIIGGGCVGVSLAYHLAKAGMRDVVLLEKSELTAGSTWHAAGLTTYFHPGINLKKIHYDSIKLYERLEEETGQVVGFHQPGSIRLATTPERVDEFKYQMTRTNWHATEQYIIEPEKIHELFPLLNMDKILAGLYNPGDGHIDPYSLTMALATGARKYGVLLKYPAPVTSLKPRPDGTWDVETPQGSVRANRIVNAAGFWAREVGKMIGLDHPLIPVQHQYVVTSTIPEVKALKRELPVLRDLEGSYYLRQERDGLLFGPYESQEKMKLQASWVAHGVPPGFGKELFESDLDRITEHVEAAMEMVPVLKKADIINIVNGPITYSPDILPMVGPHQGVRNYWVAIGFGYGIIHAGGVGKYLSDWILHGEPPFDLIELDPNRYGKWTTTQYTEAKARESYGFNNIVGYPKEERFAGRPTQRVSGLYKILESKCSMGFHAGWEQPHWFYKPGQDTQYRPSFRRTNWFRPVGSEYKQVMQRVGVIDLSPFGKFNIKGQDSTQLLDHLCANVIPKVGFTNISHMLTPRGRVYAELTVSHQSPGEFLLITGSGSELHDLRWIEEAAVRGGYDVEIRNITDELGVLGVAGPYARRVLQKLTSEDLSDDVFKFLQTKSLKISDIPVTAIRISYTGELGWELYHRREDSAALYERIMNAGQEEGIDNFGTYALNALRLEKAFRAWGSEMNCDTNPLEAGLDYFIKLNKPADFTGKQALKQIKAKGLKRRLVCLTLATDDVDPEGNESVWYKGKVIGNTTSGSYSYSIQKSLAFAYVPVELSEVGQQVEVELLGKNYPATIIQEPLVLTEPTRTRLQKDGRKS
# [2] = target: T2, mDMGDH (mature rat DMGDH) (Rattus norvegicus, UniProt Q63342); assay: X-ray crystal structure, […] Å; assay type: binding; conditions: covalent; histidyl(N3)-(8alpha)FAD at His84; no folate
# T2 sequence (Q63342 22-857): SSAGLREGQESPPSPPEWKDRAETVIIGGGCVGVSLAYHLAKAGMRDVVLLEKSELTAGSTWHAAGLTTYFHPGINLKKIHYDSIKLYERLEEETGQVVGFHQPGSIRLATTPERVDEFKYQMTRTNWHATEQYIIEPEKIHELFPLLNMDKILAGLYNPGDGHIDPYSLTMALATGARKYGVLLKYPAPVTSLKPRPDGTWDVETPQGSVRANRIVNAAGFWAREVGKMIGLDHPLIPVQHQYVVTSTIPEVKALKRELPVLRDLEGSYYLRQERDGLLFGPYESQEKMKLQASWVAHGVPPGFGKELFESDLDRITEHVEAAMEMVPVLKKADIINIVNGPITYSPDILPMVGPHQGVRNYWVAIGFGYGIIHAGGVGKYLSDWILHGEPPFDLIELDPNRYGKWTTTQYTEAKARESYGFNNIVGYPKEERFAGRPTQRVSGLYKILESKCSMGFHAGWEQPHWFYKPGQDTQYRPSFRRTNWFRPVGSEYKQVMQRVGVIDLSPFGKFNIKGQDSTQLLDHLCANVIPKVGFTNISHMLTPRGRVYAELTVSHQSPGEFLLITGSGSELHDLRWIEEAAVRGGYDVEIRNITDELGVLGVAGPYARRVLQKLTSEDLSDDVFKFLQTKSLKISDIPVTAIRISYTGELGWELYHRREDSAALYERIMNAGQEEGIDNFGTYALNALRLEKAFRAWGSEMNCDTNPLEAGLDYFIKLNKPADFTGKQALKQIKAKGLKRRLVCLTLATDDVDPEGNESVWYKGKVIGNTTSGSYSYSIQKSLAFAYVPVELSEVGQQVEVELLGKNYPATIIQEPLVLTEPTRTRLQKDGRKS
structure (smiles),measurement,setting,value
Cc1cc2nc3c(=O)[nH]c(=O)nc-3n(C[C@H](O)[C@H](O)[C@H](O)COP(=O)(O)OP(=O)(O)OC[C@H]3O[C@@H](n4cnc5c(N)ncnc54)[C@H](O)[C@@H]3O)c2cc1C [FAD],"X-ray crystal structure, 1.85 Å",[1],"two covalently bound FAD molecules, two folate molecules"
same,"X-ray crystal structure, 2.32 Å",[2],N-terminal domain covalently binds cofactor FAD through His84
